Test results as given in patent publication US20250230193A1, “CYCLIC COMPOUND HAVING SELECTIVE KRAS INHIBITORY EFFECT ON HRAS AND NRAS” (CHUGAI SEIYAKU KABUSHIKI KAISHA, priority 2022, published 2025).
Where a SMILES comes first, the peptide text is derived from it. Bridges are numbered along the chain shown (N, C = ends). [ ]: non-standard residue; d: D form. The star is where a group is joined. hPhe(3-Cl-4-CF3) = N[C@@H](CCc1ccc(C(F)(F)F)c(Cl)c1)C(=O)O; NEtPhe(4-Me) = CCN[C@@H](Cc1ccc(C)cc1)C(=O)O; NMeGly(cPent) = CN[C@H](C(=O)O)C1CCCC1; Hyp = O=C(O)[C@@H]1C[C@@H](O)CN1; NMeD = CN[C@@H](CC(=O)O)C(=O)O; NMeL = CN[C@@H](CC(C)C)C(=O)O; Morpholide = C1CN(*)CCO1; Ac5c = NC1(C(=O)O)CCCC1; X45 = C1CCC(*)OC1; Sar = CNCC(=O)O

Key:
[1] = molecular target: GDP-bound NRAS wild-type protein (Homo sapiens, UniProt P01111); experiment: Binding to NRAS by surface plasmon resonance (SPR), Single Cycle Kinetics
Chain of GDP-bound NRAS wild-type protein (P01111 whole entry): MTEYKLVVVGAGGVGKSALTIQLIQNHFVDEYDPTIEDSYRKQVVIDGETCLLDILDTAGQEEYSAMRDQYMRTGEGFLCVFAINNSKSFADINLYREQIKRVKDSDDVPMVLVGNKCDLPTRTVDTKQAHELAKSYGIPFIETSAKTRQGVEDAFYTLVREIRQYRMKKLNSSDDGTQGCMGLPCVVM

[2] = molecular target: GDP-bound HRAS wild-type protein (Homo sapiens, UniProt P01112); experiment: Binding to HRAS by surface plasmon resonance (SPR), Single Cycle Kinetics
Chain of GDP-bound HRAS wild-type protein (P01112 whole entry): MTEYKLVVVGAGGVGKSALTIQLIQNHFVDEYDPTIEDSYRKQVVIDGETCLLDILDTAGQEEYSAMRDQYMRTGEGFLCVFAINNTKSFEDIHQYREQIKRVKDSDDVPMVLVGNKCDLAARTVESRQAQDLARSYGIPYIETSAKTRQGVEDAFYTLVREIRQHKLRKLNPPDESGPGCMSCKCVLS

With `CCO[C@@H]1C[C@H]2C(=O)NC3(CCC3)C(=O)N(C)[C@@H](C3CCCC3)C(=O)N(C)[C@H](C(=O)N(C)C)CC(=O)N(C)[C@@H](CC(C)C)C(=O)N[C@@H]([C@@H](C)CC)C(=O)N(C)CC(=O)N(C)[C@H]3CCCCN(C3=O)[C@@H](Cc3ccc(C(F)(F)F)cc3)C(=O)N(C)CC(=O)N[C@@H](CCc3cc(F)c(C(F)(F)F)c(F)c3)C(=O)N2C1` [PP0580] the “NRAS/KRAS (ratio of KD value with respect to GDP-bound NRAS wild-type protein to KD value with respect to KRAS)” value ([1]; KD ratio NRAS/KRAS, SPR) was “C (A compound having a KD ratio of 0.1 or more and less than 3 is denoted as C)” and the “HRAS/KRAS (ratio of KD value with respect to GDP-bound HRAS wild-type protein to KD value with respect to KRAS)” value ([2]; KD ratio HRAS/KRAS, SPR) was “C (A compound having a KD ratio of 0.1 or more and less than 3 is denoted as C)”.

`CCO[C@@H]1C[C@H]2C(=O)N(C)C3(CC(C)(C)C3)C(=O)N(C)[C@@H](C3CCCC3)C(=O)N(C)[C@H](C(=O)N(C)C)CC(=O)N(C)[C@H]3CCCC/C=C/c4ccc(cc4)C[C@@H](C(=O)N(C)CC(=O)N[C@@H](CCc4ccc(Cl)c(Cl)c4)C(=O)N2C1)N1CC/C=C\C[C@@H](C1=O)N(C)C(=O)CN(C)C(=O)[C@H]([C@@H](C)CC)NC3=O` [PP3062] was tested, and the “NRAS/KRAS (ratio of KD value with respect to GDP-bound NRAS wild-type protein to KD value with respect to KRAS)” value ([1]; KD ratio NRAS/KRAS, SPR, GDP-bound wild-type proteins) was “A (a compound having 10 or more and less than 20 is denoted as A)” and the “HRAS/KRAS (ratio of KD value with respect to GDP-bound HRAS wild-type protein to KD value with respect to KRAS)” value ([2]; KD ratio HRAS/KRAS, SPR, GDP-bound wild-type proteins) was “A (a compound having 10 or more and less than 20 is denoted as A)”.

For `CCCN1CC(=O)N(C)[C@H]2C/C=C\CCN(C2=O)[C@@H](Cc2ccc(C)cc2)C(=O)N(C)CC(=O)N[C@@H](CCc2ccc(C(F)(F)F)c(OC)c2)C(=O)N2C[C@H](OCC)C[C@H]2C(=O)NC2(CC(C)(C)C2)C(=O)N(C)[C@@H](C2CCCC2)C(=O)N(C)[C@H](C(=O)N(C)C)CC(=O)N(C)[C@@H](CC)C(=O)N[C@@H]([C@@H](C)CC)C1=O` [PP2096], the “NRAS/KRAS (ratio of KD value with respect to NRAS to KD value with respect to KRAS)” value ([1]; SPR, GDP-bound NRAS wild-type vs GDP-bound KRAS wild-type) was “A (a compound having 10 or more and less than 20 is denoted as A)” and the “HRAS/KRAS (ratio of KD value with respect to HRAS to KD value with respect to KRAS)” value ([2]; SPR, GDP-bound HRAS wild-type vs GDP-bound KRAS wild-type) was “A (a compound having 10 or more and less than 20 is denoted as A)”.

For `CC[C@H](C)[C@@H]1NC(=O)[C@H](CC(C)C)N(C)C(=O)C[C@@H](C(=O)N2CCOCC2)N(C)C(=O)[C@H](CC(F)(F)F)N(C)C(=O)C2(CCCC2)NC(=O)[C@@H]2CCCN2C(=O)[C@H](CCc2cc(F)c(C(F)(F)F)c(F)c2)NC(=O)CN(C)C(=O)[C@H](Cc2ccc(C(F)(F)F)cc2)N2CCCCC[C@@H](C2=O)N(C)C(=O)CN(C)C1=O` [PP0506], the “NRAS/KRAS (ratio of KD value with respect to GDP-bound NRAS wild-type protein to KD value with respect to KRAS)” value ([1]; KD ratio NRAS/KRAS, SPR) was “B (a compound having 3 or more and less than 10 is denoted as B)” and the “HRAS/KRAS (ratio of KD value with respect to GDP-bound HRAS wild-type protein to KD value with respect to KRAS)” value ([2]; KD ratio HRAS/KRAS, SPR) was “B (a compound having 3 or more and less than 10 is denoted as B)”.

In the case of `CC[C@H](C)[C@@H]1NC(=O)[C@H](CC(C)C)N(C)C(=O)C[C@@H](C(=O)N2CCOCC2)N(C)C(=O)[C@H](C2CCCC2)N(C)C(=O)C2(CCCC2)NC(=O)[C@@H]2C[C@@H](OC3CCCCO3)CN2C(=O)[C@H](CCc2ccc(C(F)(F)F)c(Cl)c2)NC(=O)CN(C)C(=O)[C@H](Cc2ccc(C)cc2)N(CC)C(=O)CN(C)C(=O)CN(C)C1=O` (some centres unmarked) [PP0068] ([NMeL]I[Sar][Sar][NEtPhe(4-Me)][Sar][hPhe(3-Cl-4-CF3)][Hyp](X45)[Ac5c][NMeGly(cPent)][NMeD]-Morpholide; lactam N-11), the “NRAS/KRAS (ratio of KD for GDP-bound NRAS wild-type to KD for KRAS)” value ([1]; KD ratio NRAS/KRAS, SPR) is reported as “C (A compound having a KD ratio of 0.1 or more and less than 3 is denoted as C)” and the “HRAS/KRAS (ratio of KD for GDP-bound HRAS wild-type to KD for KRAS)” value ([2]; KD ratio HRAS/KRAS, SPR) is reported as “C (A compound having a KD ratio of 0.1 or more and less than 3 is denoted as C)”.

In the case of `CCC[C@H]1C(=O)N[C@@H]([C@@H](C)CC)C(=O)N(C)CC(=O)N(C)[C@H]2C/C=C\CCN(C2=O)[C@@H](Cc2ccc(C)cc2)C(=O)N(C)CC(=O)N[C@@H](CCc2cc(Cl)c3sccc3c2)C(=O)N2C[C@H](OCC)C[C@H]2C(=O)NC2(CC(C)(C)C2)C(=O)N(C)[C@@H](C(CC)CC)C(=O)N(C)[C@H](C(=O)N(C)C)CC(=O)N1C` [PP2890], the “NRAS/KRAS (ratio of KD value with respect to GDP-bound NRAS wild-type protein to KD value with respect to KRAS)” value ([1]; KD ratio NRAS/KRAS, class symbols) is reported as “AA (a compound having 20 or more is denoted as AA)” and the “HRAS/KRAS (ratio of KD value with respect to GDP-bound HRAS wild-type protein to KD value with respect to KRAS)” value ([2]; KD ratio HRAS/KRAS, class symbols) is reported as “A (a compound having 10 or more and less than 20 is denoted as A)”.

With `CCCN(C)C(=O)[C@@H]1CC(=O)N(C)[C@@H](CC(F)F)C(=O)N[C@@H]([C@@H](C)CC)C(=O)N(C)CC(=O)N(C)[C@H]2C/C=C\CCN(C2=O)[C@@H](Cc2ccc(C(F)(F)F)cc2)C(=O)N(C)CC(=O)N[C@@H](CCc2cc(F)c(C(F)(F)F)c(F)c2)C(=O)N2C[C@H](OCC)C[C@H]2C(=O)NC2(CC(C)(C)C2)C(=O)N(C)[C@@H](C2CCCC2)C(=O)N1C` [PP2030] the “NRAS/KRAS (ratio of KD value for NRAS to KD value for KRAS)” value ([1]; KD ratio, GDP-bound NRAS wild-type vs GDP-bound KRAS wild-type, SPR) was “A (a compound having 10 or more and less than 20 is denoted as A)” and the “HRAS/KRAS (ratio of KD value for HRAS to KD value for KRAS)” value ([2]; KD ratio, GDP-bound HRAS wild-type vs GDP-bound KRAS wild-type, SPR) was “A (a compound having 10 or more and less than 20 is denoted as A)”.
